Molecular target: T1, Enhanced ProLabel (ePL)-Tagged CAMKK2 (Homo sapiens, UniProt Q96RR4)
T1 construct: expressed in transfected cells
Assay: Degradation of stably expressed ePL-tagged CAMKK2 in 293T cells (InCELL Hunter luminescence, 24 h)
Assay type: cell-based
Conditions: minimum % protein remaining; ePL-CAMKK2 293T cells, 24 h incubation
Protocol: Cells were dispensed into 384 well plates pre-spotted with serial diluted test compounds. After 24 h incubation, degradation was terminated by the addition of DiscoverX InCELL Hunter Detection reagent.
Assay plates were incubated at 37° C. with 5% CO2 for 24 hours. Plates were kept at room temperature for 30 min, after which 25 μL of the InCELL Hunter Detection Reagent Working Solution was added (catalog number 96-0002, DiscoverX, Fremont, CA). After plates were incubated at room temperature for 30 min, protected from light, luminescence was read on a PHERAstar reader (BMG LABTECH, Cary, N.C.). Data was normalized and fit using Activity Base (IDBS, Alameda, Calif.) as described below.
A Four Parameter Logistic Model (Sigmoidal Dose-Response Model, equation 1) was used to determine the compound's EC50 and degradation Ymin.
where C is CAMKK2 degradation potency EC50, D is the […], A is the lower limit reported as Ymin. Ymin and EC50 were used to characterize compound-mediated CAMKK2 degradation efficiency.

T1 sequence (Q96RR4 whole entry): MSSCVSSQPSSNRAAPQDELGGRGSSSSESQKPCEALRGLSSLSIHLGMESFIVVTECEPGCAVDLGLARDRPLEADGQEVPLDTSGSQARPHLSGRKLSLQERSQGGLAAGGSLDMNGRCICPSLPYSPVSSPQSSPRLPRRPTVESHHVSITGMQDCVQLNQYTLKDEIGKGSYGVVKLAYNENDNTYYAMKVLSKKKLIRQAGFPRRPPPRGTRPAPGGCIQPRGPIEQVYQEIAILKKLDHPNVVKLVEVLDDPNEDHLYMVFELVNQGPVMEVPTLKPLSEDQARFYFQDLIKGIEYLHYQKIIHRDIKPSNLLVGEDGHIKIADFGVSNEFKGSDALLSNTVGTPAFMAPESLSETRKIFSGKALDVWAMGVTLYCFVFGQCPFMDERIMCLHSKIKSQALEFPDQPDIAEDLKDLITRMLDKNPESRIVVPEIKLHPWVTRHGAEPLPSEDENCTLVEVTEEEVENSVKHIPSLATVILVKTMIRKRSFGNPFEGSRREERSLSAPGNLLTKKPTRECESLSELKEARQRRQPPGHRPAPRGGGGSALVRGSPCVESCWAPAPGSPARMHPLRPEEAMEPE

SMILES	(ePL) HEK293 24 h CAMKK2 Ymin(%)
Cc1ncsc1-c1ccc(CNC(=O)[C@@H]2C[C@@H](O)CN2C(=O)[C@@H](NC(=O)CCCCCCCCCCOc2ccc3c(-c4ccc(C(=O)O)c(C5CCCC5)c4)ncnc3c2)C(C)(C)C)cc1 (racemic) [Compound 2, 2-cyclopentyl-4-[7-[11-oxo-11-[[rac-(1S)-2,2-dimethyl-1-[rac-(2S,4R)-4-hydroxy-2-[[4-(4-methylthiazol-5-yl)phenyl]methylcarbamoyl]pyrrolidine-1-carbonyl]propyl]amino]undecoxy]quinazolin-4-yl]benzoic acid]	37
Cc1ncsc1-c1ccc(CNC(=O)[C@@H]2C[C@@H](O)CN2C(=O)[C@@H](NC(=O)CCCCCCOc2ccc3c(-c4ccc(C(=O)O)c(C5CCCC5)c4)ncnc3c2)C(C)(C)C)cc1 (racemic) [Compound 6, 2-cyclopentyl-4-[7-[7-oxo-7-[[rac-(1S)-2,2-dimethyl-1-[rac-(2S,4R)-4-hydroxy-2-[[4-(4-methylthiazol-5-yl)phenyl]methylcarbamoyl]pyrrolidine-1-carbonyl]propyl]amino]heptoxy]quinazolin-4-yl]benzoic acid]	42
Cc1ncsc1-c1ccc(CNC(=O)[C@@H]2C[C@@H](O)CN2C(=O)[C@@H](NC(=O)CCCCCCCCCCCOc2ccc3c(-c4ccc(C(=O)O)c(C5CCCC5)c4)ncnc3c2)C(C)(C)C)cc1 [Compound 1, 2-cyclopentyl-4-[7-[12-[[(1S)-1-[(2S,4R)-4-hydroxy-2-[[4-(4-methylthiazol-5-yl)phenyl]methylcarbamoyl]pyrrolidine-1-carbonyl]-2,2-dimethyl-propyl]amino]-12-oxo-dodecoxy]quinazolin-4-yl]benzoic acid]	43
Cc1ncsc1-c1ccc(CNC(=O)[C@@H]2C[C@@H](O)CN2C(=O)[C@@H](NC(=O)CCCCCCCCOc2ccc3c(-c4ccc(C(=O)O)c(C5CCCC5)c4)ncnc3c2)C(C)(C)C)cc1 [Compound 4, 2-cyclopentyl-4-[7-[9-[[(1S)-1-[(2S,4R)-4-hydroxy-2-[[4-(4-methylthiazol-5-yl)phenyl]methylcarbamoyl]pyrrolidine-1-carbonyl]-2,2-dimethyl-propyl]amino]-9-oxo-nonoxy]quinazolin-4-yl]benzoic acid]	19
Cc1ncsc1-c1ccc(CNC(=O)[C@@H]2C[C@@H](O)CN2C(=O)[C@@H](NC(=O)CCCCCCCOc2ccc3c(-c4ccc(C(=O)O)c(C5CCCC5)c4)ncnc3c2)C(C)(C)C)cc1 [Compound 5]	32
